Source: US20200024278A1, “COMPOSITION COMPRISING ANTIBIOTIC COMPOUND AND AN HETEROCYCLIC COMPOUND AND THEIR USE IN PREVENTING OR TREATING BACTERIAL INFECTIONS” (MUTABILIS, priority 2016, published 2020)

Assays:
Experiment in all cases: MIC, broth microdilution (CLSI), substance alone or ATB combined with compound at 4 or 8 μg/mL
[1] = system: ECO 190317; type: cell-based, E. coli; conditions: ECO 190317
How it was run: (§1)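 Each strain received 5·10^5 CFU/mL of log-phase cells in ca-MHB over DMSO-spotted compound or compound-antibiotic combinations. After 16-20 h at 35° C, growth was scored visually.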

[2] = system: ECO UFR39; type: cell-based, E. coli; conditions: ECO UFR39; for MIC ATB combined with Example compound: compound @4 μg/ml
How it was run: as §1

[3] = system: KPN 6299; type: cell-based, K. pneumoniae; conditions: MIC of CIP, compound @4 μg/ml
How it was run: as §1

[4] = system: KPN BAA-1898; type: cell-based, K. pneumoniae; conditions: KPN BAA-1898
How it was run: as §1

[5] = system: KPN UFR42; type: cell-based, K. pneumoniae; conditions: KPN UFR42; for MIC ATB combined with Example compound: compound @4 μg/ml
How it was run: as §1

[6] = system: ECL P99; type: cell-based, E. cloacae; conditions: ECL P99
How it was run: as §1

[7] = system: PAE 105250; type: cell-based, P. aeruginosa; conditions: PAE 105250; for MIC ATB combined with compound / MIC ATB combined with Example compound: compound @4 μg/ml
How it was run: as §1

[8] = system: PAE UFR48; type: cell-based, P. aeruginosa; conditions: PAE UFR48; for MIC ATB combined with compound / MIC ATB combined with Example compound: compound @4 μg/ml
How it was run: as §1

[9] = system: PAE UFR90; type: cell-based, P. aeruginosa; conditions: PAE UFR90; for MIC ATB combined with compound / MIC ATB combined with Example compound: compound @4 μg/ml
How it was run: as §1

[10] = system: SAU 29213; type: cell-based, S. aureus; conditions: for MIC ATB combined with compound / MIC ATB combined with Example compound: compound @4 μg/ml, SAU 29213
How it was run: as §1

[11] = system: SPN 49619; type: cell-based, S. pneumoniae; conditions: SPN 49619; for MIC ATB combined with compound / MIC ATB combined with Example compound: compound @4 μg/ml
How it was run: as §1

[12] = system: ABA UFR152; type: cell-based, A. baumannii; conditions: Acinetobacter baumannii, substance alone, read-out: MIC
How it was run: as §1

[13] = system: ABA UFR156; type: cell-based, A. baumannii; conditions: Acinetobacter baumannii, substance alone, read-out: MIC
How it was run: as §1

[14] = Escherichia coli, substance alone, read-out: MIC
[15] = Pseudomonas aeruginosa, substance alone, read-out: MIC

O=C1N2CC(c3ncco3)=C[C@H](C2)N1OS(=O)(=O)[O-].[Na+] [Example 9, sodium [(5R)-3-(oxazol-2-yl)-7-oxo-1,6-diazabicyclo[3.2.1]oct-3-en-6-yl] sulfate]
MIC [1, 14]: 0.5 µg/mL | MIC ATB combined with Example compound ([1]; MIC of CIP, compound @4 μg/ml): <0.031 µg/mL | MIC [2, 14]: 2 µg/mL | MIC ATB combined with Example compound ([2]; MIC of CIP): <0.031 µg/mL | MIC ATB combined with Example compound ([2]; MIC of CPO): <0.031 µg/mL | MIC ATB combined with Example compound [3]: <=0.031 μg/mL | MIC ([4]; Klebsiella pneumoniae, BAA1898, substance alone, read-out: MIC): 2 µg/mL | MIC ATB combined with Example compound ([4]; MIC of CIP, compound @4 μg/ml): <0.031 µg/mL | MIC ([5]; Klebsiella pneumoniae, substance alone, read-out: MIC): 8 µg/mL | MIC ATB combined with Example compound ([5]; MIC of CIP): <0.031 µg/mL | MIC ATB combined with Example compound ([5]; MIC of CPO): <0.031 µg/mL | MIC ([6]; Enterobacter cloacae, substance alone, read-out: MIC): 2 µg/mL | MIC ATB combined with Example compound ([6]; MIC of CIP, compound @4 μg/ml): <0.031 µg/mL | MIC ATB combined with compound ([7]; ATB ATM): 8 µg/mL | MIC ATB combined with compound ([7]; ATB FEP): 8 µg/mL | MIC ATB combined with compound ([7]; ATB FOS): >128 µg/mL | MIC ATB combined with compound ([7]; ATB MEM): 4 µg/mL | MIC ATB combined with compound ([7]; ATB PIP): 32 µg/mL | MIC ATB combined with Example compound ([7]; MIC of CIP): 0.125 µg/mL | MIC ATB combined with Example compound ([7]; MIC of CPO): 32 µg/mL | MIC [7, 15]: > 32 µg/mL | MIC ATB combined with compound ([8]; ATB ATM): 128 µg/mL | MIC ATB combined with compound ([8]; ATB FEP): 32 µg/mL | MIC ATB combined with compound ([8]; ATB FOS): 32 µg/mL | MIC ATB combined with compound ([8]; ATB MEM): 2 µg/mL | MIC ATB combined with compound ([8]; ATB PIP): 32 µg/mL | MIC ATB combined with Example compound ([8]; MIC of CIP): 4 µg/mL | MIC ATB combined with Example compound ([8]; MIC of CPO): >32 µg/mL | MIC [8, 15]: 128 µg/mL | MIC ATB combined with compound ([9]; ATB ATM): 128 µg/mL | MIC ATB combined with compound ([9]; ATB FEP): 4 µg/mL | MIC ATB combined with compound ([9]; ATB FOS): 4 µg/mL | MIC ATB combined with compound ([9]; ATB MEM): 1 µg/mL | MIC ATB combined with compound ([9]; ATB PIP): 16 µg/mL | MIC ATB combined with Example compound ([9]; MIC of CIP): 1 µg/mL | MIC ATB combined with Example compound ([9]; MIC of CPO): 8 µg/mL | MIC [9, 15]: > 128 µg/mL | MIC ATB combined with compound ([10]; ATB ATM): <=0.031 μg/mL | MIC ATB combined with compound ([10]; ATB FEP): <0.031 µg/mL | MIC ATB combined with compound ([10]; ATB FOS): <0.125 µg/mL | MIC ATB combined with compound ([10]; ATB MEM): <0.031 µg/mL | MIC ATB combined with compound ([10]; ATB PIP): <0.031 µg/mL | MIC ATB combined with Example compound ([10]; MIC of CIP): <0.031 µg/mL | MIC ATB combined with Example compound ([10]; MIC of CLI): <0.0010 µg/mL | MIC ATB combined with Example compound ([10]; MIC of CPO): <0.031 µg/mL | MIC ATB combined with Example compound ([10]; MIC of DAP): <0.0020 µg/mL | MIC ATB combined with Example compound ([10]; MIC of ERY): <=0.0020 μg/mL | MIC ATB combined with Example compound ([10]; MIC of LZD): <0.0078 µg/mL | MIC ATB combined with Example compound ([10]; MIC of RIF): 0.002 µg/mL | MIC ATB combined with Example compound ([10]; MIC of SYN): 0.0039 µg/mL | MIC ATB combined with Example compound ([10]; MIC of VAN): <0.0039 µg/mL | MIC ([10]; Staphylococcus aureus, substance alone, SAU 29213 (MSSA 29213), read-out: MIC): 8 µg/mL | MIC ATB combined with compound ([11]; ATB ATM): <0.031 µg/mL | MIC ATB combined with compound ([11]; ATB FEP): <=0.031 μg/mL | MIC ATB combined with compound ([11]; ATB FOS): 4 µg/mL | MIC ATB combined with compound ([11]; ATB MEM): <=0.031 μg/mL | MIC ATB combined with compound ([11]; ATB PIP): <0.031 µg/mL | MIC ATB combined with Example compound ([11]; MIC of CIP): 0.25 µg/mL | MIC ATB combined with Example compound ([11]; MIC of CLI): 0.0039 µg/mL | MIC ATB combined with Example compound ([11]; MIC of CPO): <=0.031 μg/mL | MIC ATB combined with Example compound ([11]; MIC of DAP): <0.0020 µg/mL | MIC ATB combined with Example compound ([11]; MIC of ERY): <0.0020 µg/mL | MIC ATB combined with Example compound ([11]; MIC of LZD): <=0.0078 μg/mL | MIC ATB combined with Example compound ([11]; MIC of RIF): 0.00024 µg/mL | MIC ATB combined with Example compound ([11]; MIC of SYN): <=0.0020 μg/mL | MIC ATB combined with Example compound ([11]; MIC of VAN): <0.0039 µg/mL | MIC ([11]; Streptococcus pneumoniae, substance alone, read-out: MIC): 8 µg/mL | MIC [12]: > 32 µg/mL | MIC [13]: > 32 µg/mL
